Test results from ChEMBL document CHEMBL4422617, “Recent advances in the discovery of small molecules targeting glioblastoma” (Eur J Med Chem, 2019).
Each block holds one molecule with its values, some of them ahead of it.

How the values were obtained:
U-87 MG [1] = assay: Antiproliferative activity against human U87MG cells after 48 hrs by MTS assay; assay type: functional, cell-based, U-87MG ATCC
U373 MG [2] = assay: Antiproliferative activity against human U373MG cells after 48 hrs by MTS assay; assay type: functional, cell-based, U-373MG ATCC
[3] = Cytotoxicity against human GBM6 cells after 72 hrs by MTS assay; assay type: functional; conditions: GBM6, 72 h, read-out: ED50 (the source's name)
T98G [4] = assay: Antiproliferative activity against human T98G cells after 5 days by CyQuantGR dye-based fluorescence assay; assay type: functional, cell-based; conditions: 120 h
[5] = Cmax in […] mouse at 25 micromol/kg, ip administered as single dose by mass spectrometric analysis; assay type: ADME, organism-based; parameters: route intraperitoneal; conditions: in vivo, 25 µmol/kg
U-251 [6] = assay: Antiproliferative activity against human U251 cells after 5 days by CyQuantGR dye-based fluorescence assay; assay type: functional, cell-based; conditions: U-251, 120 h
U-118-MG = assay: Antiproliferative activity against human U118MG cells after 5 days by CyQuantGR dye-based fluorescence assay; assay type: functional, cell-based; conditions: 120 h
[7] = Half life in […] mouse at 25 micromol/kg, ip administered as single dose by mass spectrometric analysis; assay type: ADME, organism-based; conditions: in vivo, 25 µmol/kg
[8] = Tmax in […] mouse at 25 micromol/kg, ip administered as single dose by mass spectrometric analysis; assay type: ADME, organism-based; conditions: in vivo, 25 µmol/kg
U-87 MG [9] = assay: Antiproliferative activity against human U87MG cells after 5 days by CyQuantGR dye-based fluorescence assay; assay type: functional, cell-based, U-87MG ATCC; conditions: 120 h
U-87 MG [10] = assay: Inhibition of cell proliferation of human U87 cells over-expressing EGFRvIII at 5 uM; assay type: functional, U-87MG ATCC
U-251 [11] = assay: Inhibition of cell proliferation of human U251 cells at 5 uM; assay type: functional
LN-229 = assay: Inhibition of cell proliferation of human LN229 cells at 5 uM; assay type: functional
U-87 MG [12] = assay: Antiproliferative activity against human U87 cells; assay type: functional, cell-based, U-87MG ATCC
T98G [13] = assay: Antiproliferative activity against human T98G cells after 72 hrs by MTS assay; assay type: functional, cell-based
[14] = Antiproliferative activity against human PRT-HU2 cells after 72 hrs by MTS assay; assay type: functional, cell-based
U373 MG [15] = assay: Antiproliferative activity against human U373MG cells after 72 hrs by MTS assay; assay type: functional, cell-based, U-373MG ATCC
U-87 MG [16] = assay: Antiproliferative activity against human U87MG cells after 72 hrs by MTS assay; assay type: functional, cell-based, U-87MG ATCC
U-87 MG [17] = assay: Antiproliferative activity against human U87MG cells after 96 hrs by SRB assay; assay type: functional, U-87MG ATCC
U-87 MG [18] = assay: Antiproliferative activity against human U87MG cells after 72 hrs by MTT assay; assay type: functional, cell-based, U-87MG ATCC
C6 = assay: Antiproliferative activity against rat C6 cells at 50 uM after 24 hrs by MTT assay relative to control; assay type: functional
U-87 MG [19] = assay: Antiproliferative activity against human U87MG cells after 24 hrs by WST-1 assay; assay type: functional, cell-based, U-87MG ATCC
[20] = Antiproliferative activity against human M059K cells after 48 hrs by WST-1 assay; assay type: functional, cell-based
U-87 MG [21] = assay: Antiproliferative activity against human U87 cells over-expressing EGFRvIII assessed as reduction in cell viability after 72 hrs by AlamarBlue assay; assay type: functional, cell-based, U-87MG ATCC
U-251 [22] = assay: Antiproliferative activity against human U251 cells assessed as reduction in cell viability after 72 hrs by AlamarBlue assay; assay type: functional, cell-based; conditions: U-251, 72 h
U-87 MG [23] = assay: Antiproliferative activity against human U87 cells assessed as reduction in cell viability after 72 hrs by AlamarBlue assay; assay type: functional, cell-based, U-87MG ATCC
[24] = Antiproliferative activity against human RN1 cells assessed as reduction in cell viability after 72 hrs in presence of irradiation by AlamarBlue assay; assay type: functional, cell-based; conditions: RN1, light or radiation study
U-251 [25] = assay: Antiproliferative activity against human U251 cells assessed as reduction in cell viability after 72 hrs in presence of irradiation by AlamarBlue assay; assay type: functional, cell-based; conditions: U-251, light or radiation study
[26] = Antiproliferative activity against human RN1 cells assessed as reduction in cell viability after 72 hrs by AlamarBlue assay; assay type: functional, cell-based; conditions: RN1, 72 h
Histone deacetylase = assay: Inhibition of mouse liver HDAC using Boc-Lys (Ac)-AMC as substrate preincubated for 5 mins followed by substrate addition and measured after 30 mins by fluorescence assay
U-251 [27] = assay: Antiproliferative activity against human U251 cells after 24 hrs by SRB assay; assay type: functional, cell-based; conditions: U-251, 24 h
[28] = Antiproliferative activity against mouse GL26 cells after 120 hrs by WST-1 assay; assay type: functional, cell-based; conditions: GL26, 120 h
U-251 [29] = assay: Antiproliferative activity against human U251 cells after 120 hrs by WST-1 assay; assay type: functional, cell-based; conditions: U-251, 120 h
U-251 [30] = assay: Antiproliferative activity against human U251MG cells after 120 hrs by SRB assay; assay type: functional, cell-based; conditions: U-251, 120 h
SF-295 = assay: Antiproliferative activity against human SF295 cells after 72 hrs by MTT assay; assay type: functional, cell-based; conditions: SF-295, 72 h

SMILES: O=C1[C@@H]2CS[C@]3(C(=O)Nc4ccccc43)N2C(=O)N1Cc1ccc(Cl)cc1
- IC50 (U-87 MG [1]): 2.5 µM
- IC50 (U373 MG [2]): 5.7 µM

SMILES: CN1CCN(C(=O)c2ccc3c(NC4CCN(Cc5ccccc5)CC4)c4ccccc4nc3c2)CC1
- EC50 [3]: 4.1 µM

- Cmax [5]: 260 nM
- IC50 (U-251 [6]): 5.2 µM
- half-life [7]: 14 min
- Tmax [8]: 10 min
- IC50 (U-87 MG [9]): 14 µM
SMILES: Cc1ccc(N(CCn2nnc3c(C(N)=O)ncn3c2=O)CCn2nnc3c(C(N)=O)ncn3c2=O)cc1
- IC50 (T98G [4]): 11.3 µM
- IC50 (U-118-MG): 10 µM

SMILES: O=c1[nH]c2ncc(-c3ccc(-c4nc[nH]n4)cc3)nc2n1CCC1CCOCC1
- inhibition at 5 µM (U-87 MG [10]): 60%
- inhibition at 5 µM (U-251 [11]): 60%
- inhibition at 5 µM (LN-229): 60%

- IC50 (U-87 MG [12]): 0.21 µM
SMILES: NS(=O)(=O)c1cccc2c1C(=O)c1cccc(O)c1C2=O

- IC50 (U-87 MG [16]): 14.9 µM
SMILES: Clc1ccccc1CNc1ncnc2c1cnn2CC(Cl)c1ccc(Br)cc1 (configuration not stated)
- IC50 (T98G [13]): 12.5 µM
- IC50 [14]: 14.3 µM
- IC50 (U373 MG [15]): 17.9 µM

- GI50 (U-87 MG [17]): 6.3 µM
SMILES: NC1(Cc2ccc(Cl)cc2)CCN(c2ncnc3[nH]ccc23)CC1

- IC50 (U-87 MG [18]): 23.6 µM
SMILES: O=C1C=C(O)C(=O)C(CC2CCC3CCCCC3C2)=C1O (configuration not stated)

SMILES: Brc1c(Br)c(Br)c2[nH]cnc2c1Br
- Activity (C6): 50%

- IC50 (U-87 MG [19]): 25 µM
SMILES: COc1ccc(/N=C/c2c(O)ccc3c2oc2cc(Cl)c(O)c(Cl)c23)cc1
- IC50 [20]: 40 µM

- EC50 (U-87 MG [21]): 1.7 µM
- EC50 (U-251 [22]): 1.6 µM
- EC50 (U-87 MG [23]): 1.4 µM
SMILES: O=C(CCCc1ccc(-c2cccnc2F)cc1)Nc1ccc(O)cc1

- EC50 (U-251 [25]): 1.3 µM
SMILES: COc1cc(COc2ccc(NC(=O)CCCc3ccc(-c4cccnc4F)cc3)cc2)c([N+](=O)[O-])cc1OC
- EC50 [24]: 0.3 µM
- EC50 [26]: 37.4 µM

- IC50 (Histone deacetylase): 0.0015 µM
- IC50 (U-251 [27]): 0.7 µM
SMILES: O=C(CCCCCn1cc(C(=O)Nc2nc3ccccc3s2)c(=O)c2ccccc21)NO

- IC50 (U-251 [29]): 0.000457 µM
SMILES: C=C1/C(=C/C=C2\CCC[C@]3(C)[C@@H]([C@H](C)CCCCNC(=O)CCC(=O)O)CC[C@@H]23)C[C@@H](O)C[C@@H]1O
- IC50 [28]: 16 pM

- IC50 (Histone deacetylase): 0.028 µM
- IC50 (U-251 [27]): 0.8 µM
SMILES: COc1ccc2c(c1)c(=O)c(C(=O)Nc1nc3ccccc3s1)cn2CCCCCC(=O)NO

- IC50 (U-251 [30]): 0.033 µM
SMILES: CN(C)CCN1C(=O)c2cc(NCCc3ccc(O)c(CN(C)C)c3)c3c4c(cc(NCCc5ccc(O)c(CN(C)C)c5)c(c24)C1=O)C(=O)N(CCN(C)C)C3=O

SMILES: CC1(C)OC2=C(C(=O)C(=O)c3ccccc32)[C@H](n2cc(C[Se]c3ccc(F)cc3)nn2)[C@H]1Br
- IC50 (SF-295): 1.48 µM
